Test system: PANC-1
Test: Cytotoxicity against human PANC1 cells assessed as cell viability
Type: functional

Structure (SMILES) | PC100 [µM]
COc1cc(O)c2c(=O)cc(-c3ccccc3)oc2c1 [TECHTOCHRYSIN] | >256
CC(C)=CCCC1(C)C=Cc2c(cc3c(c2O)C(=O)C[C@@H](c2ccccc2)O3)O1 (stereo partly specified) | 64
CC(C)=CCC/C(C)=C/COC(=O)c1c(O)cc(O)cc1CCc1ccccc1 | 16
CC(C)=CCC/C(C)=C/Cc1c(O)cc2c(c1O)C(=O)C[C@@H](c1ccccc1)O2 | 8
COc1cc(O)c2c(c1C/C=C(\C)CCC=C(C)C)O[C@@H](c1ccccc1)CC2=O | 128
COc1cc(O)c(C(=O)/C=C/c2ccc(O)cc2)c(OC)c1 [FLAVOKAWAIN C] | >256
CC(C)=CC[C@@H]1C(C)=CC[C@@H](c2ccccc2)[C@@H]1C(=O)c1c(O)cc(O)cc1O [4-HYDROXYPANDURATIN A] | 16
COc1cc(O)cc2c1C(=O)C[C@@H](c1ccc(O)cc1)O2 | >256
CC(C)=CC[C@@H]1C(C)=CC[C@@H](C(=O)c2c(O)cc(O)cc2O)[C@@H]1c1ccccc1 | 16
COc1cc(O)cc(O)c1C(=O)[C@@H]1CC=C(C)[C@@H](CC=C(C)C)[C@H]1c1ccccc1 (racemic) | 8
COc1cc(O)cc(O)c1C(=O)/C=C/c1ccccc1 [CARDAMOMIN] | >256
COc1cc(O)cc(O)c1C(=O)[C@@H]1[C@H](CC=C(C)C)C(C)=CC[C@H]1c1ccc(O)cc1 (racemic) | >256
COc1cc(C[C@H]2C(=O)OC[C@@H]2Cc2ccc(OC)c(OC)c2)ccc1O [ARCTIGENIN] | 1
COc1cc2c(c(O)c1C(=O)/C=C/c1ccccc1)C=CC(C)(CCC=C(C)C)O2 (stereo unspecified) [BOESENBERGIN B] | 64
COc1cc(O)c(C(=O)[C@@H]2CC=C(C)[C@@H](CC=C(C)C)[C@H]2c2ccccc2)c(O)c1 [(-)-NICOLAIOIDESIN B] | 2.5
COc1cc(O)cc2c1C(=O)C[C@@H](c1ccccc1)O2 | >256
COc1cc(O)c(C(=O)/C=C/c2ccccc2)c2c1C=CC(C)(CCC=C(C)C)O2 (stereo unspecified) [BOESENBERGIN A] | 64
COc1cc(O)cc(O)c1C(=O)[C@@H]1[C@H](CC=C(C)C)C(C)=CC[C@H]1c1ccccc1 | 16
COc1cc(O)c(C/C=C(\C)CCC=C(C)C)c(O)c1C(=O)/C=C/c1ccccc1 | 16
CC(=O)O[C@H]1C(=O)[C@@]2(C)[C@H]([C@H](OC(=O)c3ccccc3)[C@]3(O)C[C@H](OC(=O)[C@H](O)[C@@H](NC(=O)c4ccccc4)c4ccccc4)C(C)=C1C3(C)C)[C@]1(OC(C)=O)CO[C@@H]1C[C@@H]2O [PACLITAXEL] | >256
O=C1C[C@@H](c2ccccc2)Oc2cc(O)cc(O)c21 [PINOCEMBRIN] | 64
COc1cc2c(c(O)c1C/C=C(\C)CCC=C(C)C)C(=O)C[C@@H](c1ccccc1)O2 | 128
COc1cc(O)c(C(=O)[C@@H]2[C@H](CC=C(C)C)C(C)=CC[C@H]2c2ccccc2)c(OC)c1 (racemic) | 64
COc1cc(O)c2c(c1)O[C@H](c1ccccc1)CC2=O [PINOSTROBIN] | >256
COc1cc(O)c(C(=O)[C@@H]2[C@H](CC=C(C)C)C(C)=CC[C@H]2c2ccccc2)c(O)c1 [PANDURATIN A] | 2.5
COc1cc(/C=C/c2ccccc2)oc(=O)c1 [DESMETHOXYYANGONIN] | >256

Reference: ChEMBL document CHEMBL1141311, “Bioactive secondary metabolites from Boesenbergia pandurata of Myanmar and their preferential cytotoxicity against human pancreatic cancer PANC-1 cell line in nutrient-deprived medium” (2007)
